{
  "source": "paper PMC13077603",
  "about": "“Fluorine‐18‐Labeled Nucleotide Analogs Targeting Ecto‐5'‐Nucleotidase (CD73) for Positron Emission Tomography Imaging of Solid Tumors” (Angewandte Chemie (International Ed. in English), 2026)",
  "key": {"MDA‐MB‐231 tumor": {"tested_on": "MDA‐MB‐231 tumor", "assay": "PET imaging in MDA-MB-231 breast cancer xenograft model", "format": "in vivo, NSG mice", "procedure": "Given the specificity of [^18F]1 and [^18F]2 and the promising in vivo biodistribution profile of [^18F]1, we established a small‐animal human breast tumor xenograft model in NSG mice subcutaneously implanted with MDA‐MB‐231 cells. […] For blocking studies, PSB‐12651 (15, Figure 6) or unlabeled 1 were used.\nFIGURE 6 PET imaging data in an MDA‐MB‐231 tumor mouse model. (A). PET images, CT scans, and merged images of [^18F]2 in the MDA‐MB‐231 tumor mouse model 90 min after tracer injection. White arrows mark the tumor positions. (B). Quantitative PET analysis of [^18F]2 uptake: activity concentration of [^18F]2 in muscle and tumor tissues 90 min after tracer injection (left) and respective tumor‐to‐muscle ratio (right, n = 5 tumors). (C). PET‐CT images of [^18F]1 and [^18F]FDG in the MDA‐MB‐231 tumor mouse model, 260 min ([^18F]1), or 75 min ([^18F]FDG) after injection. […] White arrows mark the positions of tumors. (D). Quantitative PET analysis of [^18F]1 uptake: activity concentration of [^18F]1 and [^18F]FDG in muscle and tumor tissues (left) and tumor‐to‐muscle ratios (right) after 260 min. [^18F]1: n = 18 tumors, [^18F]1 plus unlabeled 1 block: n = 8 tumors, [^18F]1 plus compound 15 block: n = 6 tumors, [^18F]FDG: n = 18 tumors E. Ex vivo analysis of [^18F]1 uptake as measured by gamma counter: activity concentrations of [^18F]1 in muscle and tumor tissues after 260 min without and with blocking (left) and tumor‐to‐muscle ratios (right). [^18F]1: n = 6 tumors, [^18F]1 plus unlabeled 1 block: n = 6 tumors, [^18F]1 plus compound 15 block: n = 5 tumors.^# relative to the respective muscle, *relative to [^18F]1 without blocker, relative to the unblocked tumor; *<0.05; **<0.01, ***<0.001,^#<0.05; ^## <0.01, ^###<0.001, <0.05; <0.01, <0.001, ns: non‐significant, unpaired t‐test.\nMDA-MB-231 cells were cultivated in DMEM/GlutaMAX, supplemented with 10 % fetal calf serum, 100 U/mL penicillin, and 100 µg/mL streptomycin and L-glutamine to a final concentration of 8 mmol/L. AsPC-1 cells were cultivated in RPMI, supplemented with 10 % fetal calf serum, 100 U/mL penicillin, and 100 µg/mL streptomycin and L-glutamine to a final concentration of 8 mmol/L. 5 x 10^6 MDA-MB-231 or 1x 10^6 AsPC-1 cells were injected subcutaneously into the shoulder region of 7 to 12 weeks old NSG (NOD.Cg-Prkdc^scid Il2rg^tm1Wjl/SzJ) mice (Charles River Laboratories). Two tumors were inoculated per animal, and growth was followed by digital caliper measurements (volume = ½ (length * width^2)).\nAdult C57bl/6 (biodistribution study, 19.8±1.3 g) or tumor-bearing NSG mice (22.2±2.2 g) were anesthetized by isoflurane/O2, and one lateral tail vein was cannulated using a 27 G needle. A respective radiotracer (~ 390 kBq/g body weight) was injected as a bolus via the tail vein, and subsequent PET scanning was performed. A ~1000-fold excess of unlabeled JMS0414 (14 for [^18F]MRS-4648 ([^18F]2)), unlabeled PSB-19427 (1), or PSB-12651 (15) (for [^18F]PSB-19427 ([^18F]1)) was injected into a subgroup of tumor-bearing mice 10 min before radiotracer injection in the blocking studies. PET imaging studies were carried out using a submillimeter high resolution (0.7 mm full width at half-maximum) small animal scanner (32 module quadHIDAC, Oxford Positron Systems Ltd., Oxford, UK) with a uniform spatial resolution (<1 mm) over a large cylindrical field (165 mm diameter, 280 mm axial length). […]"}, "[1]": {"target": "T1, Human membrane‐bound CD73 (membrane preparation of MDA‐MB‐231 cell line) (Homo sapiens, UniProt P21589)", "T1 construct": "endogenous in cells; host or cells: MDA-MB-231 (human triple-negative breast cancer) membrane preparation", "T1 sequence (P21589 27-574)": "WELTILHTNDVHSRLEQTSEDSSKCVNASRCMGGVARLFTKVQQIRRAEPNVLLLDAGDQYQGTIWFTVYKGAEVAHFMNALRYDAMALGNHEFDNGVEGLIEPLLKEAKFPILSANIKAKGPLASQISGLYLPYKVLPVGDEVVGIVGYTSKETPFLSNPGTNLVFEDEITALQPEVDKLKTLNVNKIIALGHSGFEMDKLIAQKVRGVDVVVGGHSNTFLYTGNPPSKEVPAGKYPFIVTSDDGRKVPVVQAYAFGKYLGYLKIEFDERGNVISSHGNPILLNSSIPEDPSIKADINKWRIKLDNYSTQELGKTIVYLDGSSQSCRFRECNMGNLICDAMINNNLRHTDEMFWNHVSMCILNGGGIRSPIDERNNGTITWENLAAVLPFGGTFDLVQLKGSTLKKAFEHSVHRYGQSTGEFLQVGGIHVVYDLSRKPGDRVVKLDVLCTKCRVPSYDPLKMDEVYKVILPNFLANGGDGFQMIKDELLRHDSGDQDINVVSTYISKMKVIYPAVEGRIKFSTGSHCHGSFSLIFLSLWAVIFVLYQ", "assay": "CD73 enzyme inhibition assay, human membrane-bound CD73", "format": "biochemical", "conditions": "membrane preparation of human TNBC MDA‐MB‐231 cell line, Km 14.8 µM, substrate AMP (5 µM)", "procedure": "The CD73 enzyme inhibition assay of recombinant soluble CD73, membrane-bound human CD73, soluble rat CD73 and mouse CD73 was performed as previously described.^[16,35^]"}},
  "data": [
    {"smiles": "CCCN(Cc1ccc(-c2cn(CCF)nn2)cc1)c1nc(Cl)nc2c1ncn2[C@@H]1O[C@H](COP(=O)(O)CP(=O)(O)O)[C@@H](O)[C@H]1O", "note": "[compound 1]", "values": [
      {"measurement": "Muscle uptake", "setting": "MDA‐MB‐231 tumor; MDA‐MB‐231 model, PET, after 260 min", "value": "0.86% ± 0.24 % ID/mL"},
      {"measurement": "Tumor uptake", "setting": "MDA‐MB‐231 tumor; MDA‐MB‐231 tumor, PET, after 260 min", "value": "3.60% ± 1.27 %ID/mL"},
      {"measurement": "Ki", "setting": "[1]", "value": 2.78, "unit": "nM"}
    ]},
    {"smiles": "Cn1c(=O)n([C@@H]2O[C@H](COP(=O)(O)CP(=O)(O)O)[C@@H](O)[C@H]2O)cc/c1=N/OCc1ccc(-c2cn(CC[18F])nn2)cc1", "note": "[[^18F]2, [^18F]-{[(2R,3S,4R,5R)-5-(4-{[(4-{1-[2-(fluoro)ethyl]-1H-1,2,3-triazol-4-yl}benzyl)-oxy]imino}-3-methyl-2-oxo-3,4-dihydropyrimidin-1(2H)-yl)-3,4-dihydroxytetra-hydrofuran-2-yl]methoxy}methylenebisphosphonic acid]", "values": [
      {"measurement": "Tumor accumulation", "setting": "MDA‐MB‐231 tumor; MDA‐MB‐231 model, 90 min PET", "value": "very low tumor accumulation"}
    ]}
  ]
}
